From paper PMC6570535 (ACS infectious diseases, 2019)
No end group written: not given here.

Assays:
fsr QS circuitry [1] = biological target: T1, fsr QS circuitry (Enterococcus faecalis, UniProt A0ACD6TCR9); test: β-galactosidase cell-based bacterial reporter assay, QS activation; details: E. faecalis pGelE-lacZ reporter strain
fsr QS circuitry [2] = biological target: T1, fsr QS circuitry; test: β-galactosidase reporter assay, inhibition of competitor GBAP signal; format: cell-based, E. faecalis; details: competition with GBAP
fsr QS circuitry [3] = biological target: T1, fsr QS circuitry; details: read-out: EC50 [95% CI]; previously published analog shown for comparison; ref [19]; cited from earlier work

Substance: Ac-GBAP-Des(Q1N2)[N-MeG8] [Peptide 7]
- activity as activator (fsr QS circuitry [1]): lost all activity
- inhibitory activity (fsr QS circuitry [2]): neither of these three analogs exhibit any inhibitory activity

Substance: Ac-GBAP-Des(Q1N2)[N-MeQ9] [Peptide 8]
- activity as activator (fsr QS circuitry [1]): lost all activity
- inhibitory activity (fsr QS circuitry [2]): neither of these three analogs exhibit any inhibitory activity

Substance: Ac-GBAP-Des(Q1N2) (Ac-SPNIFGQWM; also: cyclic, ring not given here) [Peptide 2]
- EC50 (fsr QS circuitry [3]): 1.01 nM

Substance: GBAP-F7A
- EC50 (fsr QS circuitry [3]): > 1000 nM
